Measurements reported in patent US5015737A, “Therapeutically useful beta-lactams” (The Upjohn Company, priority 1990, dated 1991).
≈ marks a conversion by molar mass, not a printed value. Where two headings read alike, the source gives them in different places.

Tests used:
Assay in all cases: MIC determination by agar dilution (Mueller Hinton Agar)
Format in all cases: cell-based
Citrobacter freundii = conditions: Culture Number 3507, 35° C., 20 hours, read-out: Minimum Inhibitory Concentration
Procedure: (§1) The compounds of this invention and their respective pharmaceutically acceptable salts have antibiotic activity against a variety of gram-negative bacteria including Escherichia coli, Klebsiella pneumoniae and Pseudomonas aeruginosa. The compounds are useful for treating bacterial infections in animals, including and most preferably humans. Compounds of the invention are tested for in vitro antimicrobial activity using standard testing procedures such as the determination of minimum inhibitory concentration (MIC) by methods described in "Methods for Dilution Antimicrobial Susceptibility Tests for Bacteria That Grow Aerobically" (M7-A) Published December 1985 by the National Committee for Clinical Laboratory standards, 771 East Lancaster Avenue, Villanova, Pa., 19084. Briefly, MIC values are determined in unsupplemented Mueller Hinton Agar (MHA). The compounds tested are diluted serially into molten MHA at 47° C. The agar is poured into petri dishes and allowed to harden. The various bacteria used for testing are grown overnight on MHA at 35° C. and transferred to Tryptiease Soy Broth (TSB) until a turbidity of 0.5 McFarland standard is obtained. The bacteria are diluted one to twenty in TSB and inoculated on the plates (1 μl using a Steers replicator). […] The MIC test results of four typical compounds of this invention.

Enterobacter cloacae = conditions: 20 h, read-out: Minimum Inhibitory Concentration
Procedure: as §1

Escherichia coli = conditions: 20 h, read-out: Minimum Inhibitory Concentration
Procedure: as §1

Klebsiella oxytoca = conditions: 20 h, read-out: Minimum Inhibitory Concentration
Procedure: as §1

Klebsiella pneumoniae = conditions: Culture Number 58, 35° C., 20 hours, read-out: Minimum Inhibitory Concentration
Procedure: as §1

Proteus vulgaris = conditions: Culture Number 9679, 35° C., 20 hours, read-out: Minimum Inhibitory Concentration
Procedure: as §1

Pseudomonas aeruginosa = conditions: 20 h, read-out: Minimum Inhibitory Concentration
Procedure: as §1

Serratia marcescens = conditions: Culture Number 6888, 35° C., 20 hours, read-out: Minimum Inhibitory Concentration
Procedure: as §1

Staphylococcus aureus = conditions: 35° C., 20 hours; for MIC: Staphylococcus aureus, read-out: Minimum Inhibitory Concentration
Procedure: as §1

Staphylococcus epidermis = conditions: Culture Number 30031, 35° C., 20 hours, read-out: Minimum Inhibitory Concentration
Procedure: as §1

Streptococcus faecalis = conditions: Enterococcus faecalis, 35° C., 20 hours, read-out: Minimum Inhibitory Concentration
Procedure: as §1

Streptococcus pneumoniae = conditions: Culture Number 41, 35° C., 20 hours, read-out: Minimum Inhibitory Concentration
Procedure: as §1

Streptococcus pyogenes = conditions: Culture Number 152, 35° C., 20 hours, read-out: Minimum Inhibitory Concentration
Procedure: as §1

Acinetobacter sp. = conditions: Culture Number 30278, 35° C., 20 hours, read-out: Minimum Inhibitory Concentration
Procedure: as §1

[1] = system: Acinetobacter calcoaceticus; conditions: Culture Number 12170, 35° C., 20 hours, read-out: Minimum Inhibitory Concentration
Procedure: as §1

Compound | MIC (Citrobacter freundii) [µg/mL] | MIC (Enterobacter cloacae; Culture Number 9381, 35° C.) [µg/mL] | MIC (Enterobacter cloacae; Culture Number 9382, 35° C.) [µg/mL] | MIC (Escherichia coli; Culture Number 9379, 35° C.) [µg/mL] | MIC (Escherichia coli; Culture Number 9380, 35° C.) [µg/mL] | MIC (Escherichia coli; Culture Number 9451, 35° C.) [µg/mL] | MIC (Klebsiella oxytoca; Culture Number 9383, 35° C.) [µg/mL] | MIC (Klebsiella oxytoca; Culture Number 9384, 35° C.) [µg/mL] | MIC (Klebsiella pneumoniae) [µg/mL] | MIC (Proteus vulgaris) [µg/mL] | MIC (Pseudomonas aeruginosa; Culture Number 231, 35° C.) [µg/mL] | MIC (Pseudomonas aeruginosa; Culture Number 9191, 35° C.) [µg/mL] | MIC (Serratia marcescens) [µg/mL] | Minimum Inhibitory Concentration (Staphylococcus aureus; Culture Number 6685) [µg/mL] | Minimum Inhibitory Concentration (Staphylococcus aureus; Culture Number 9213) [µg/mL] | MIC (Staphylococcus aureus; Culture Number 9218) [µg/mL] | MIC (Streptococcus pneumoniae) [µg/mL] | MIC (Streptococcus pyogenes) [µg/mL] | MIC (Pseudomonas aeruginosa; Culture Number 6676, 35° C.) [µg/mL] | MIC [1] [µg/mL] | also measured
CC(C)(O/N=C(\C(=O)N[C@H]1CN(C(=O)NS(=O)(=O)N[C@H]2CN(C(=O)c3cc(=O)c(O)c[nH]3)NC2=O)C1=O)c1csc(N)n1)C(=O)O [60(b), 3(S)-3-[2-(2-Amino-4-thiazoyl)-Z-(2)-(carboxyisopropyloxyimino)acetamido]-1-[(3-hydroxy-4-pyridon-6-yl)-1-carbonyl-pyrazolidinone-4-(S)-amino]-sulfonyl-amino-carbonyl-2-azetidinone] | 0.03 (≈ 0.0438 µM) | 8 (≈ 11.7 µM) | 1 (≈ 1.46 µM) | < 0.008 | < 0.008 | < 0.008 | 0.125 (≈ 0.183 µM) | 0.06 (≈ 0.0876 µM) | 0.5 (≈ 0.73 µM) | 0.06 (≈ 0.0876 µM) | 0.25 (≈ 0.365 µM) | 0.25 (≈ 0.365 µM) | 0.03 (≈ 0.0438 µM) | > 64 | > 64 | > 64 | > 64 | 64 (≈ 93.5 µM) | – | – | Minimum Inhibitory Concentration (Staphylococcus aureus; Culture Number 3665): > 64 µg/mL; MIC (Staphylococcus epidermis): > 64 µg/mL; MIC (Streptococcus faecalis; Culture Number 694): > 64 µg/mL
CC(C)(O/N=C(\C(=O)N[C@H]1CN(C(=O)NS(=O)(=O)N[C@@H]2CN(C(=O)c3cc(=O)c(O)c[nH]3)NC2=O)C1=O)c1csc(N)n1)C(=O)O [60(d), 3(S)-3-[2-(2-Amino-4-thiazolyl)-Z-(2)(carboxyisopropyloxyimino)-acetamido]-1-[(3-hydroxy-4-pyridon-6-yl)-1-carbonyl-pyrazolidinone-4(R)-amino]-sulfonyl-aminocarbonyl-2-azetidinone] | 0.06 (≈ 0.0876 µM) | 4 (≈ 5.84 µM) | 1 (≈ 1.46 µM) | 0.015 (≈ 0.0219 µM) | < 0.008 | 0.015 (≈ 0.0219 µM) | 0.125 (≈ 0.183 µM) | 0.125 (≈ 0.183 µM) | 0.5 (≈ 0.73 µM) | 0.06 (≈ 0.0876 µM) | 0.25 (≈ 0.365 µM) | 0.125 (≈ 0.183 µM) | 0.03 (≈ 0.0438 µM) | – | – | 64 (≈ 93.5 µM) | > 64 | > 64 | 2 (≈ 2.92 µM) | – | MIC (Acinetobacter sp.): 1 µg/mL (≈ 1.46 µM)
C[C@H]1[C@H](NS(=O)(=O)NC(=O)N2C[C@H](NC(=O)/C(=N\OC(C)(C)C(=O)O)c3csc(N)n3)C2=O)C(=O)NN1C(=O)c1cc(=O)c(O)c[nH]1 [60(m), 3(S)-3-[2 (2-amino-4-thiazoyl)-Z-(2)(carboxyisopropyloxyimino)-acetamido]-1-[(3-hydroxy-4-pyridon-6-yl) 1-carbonyl-5(S)-methyl-pyrazolidinone-4(S)-amino]-sulfonylaminocarbonyl-2-azetidinone] | 0.03 (≈ 0.0429 µM) | 8 (≈ 11.5 µM) | 2 (≈ 2.86 µM) | 0.03 (≈ 0.0429 µM) | < 0.008 | < 0.008 | 0.25 (≈ 0.358 µM) | 0.06 (≈ 0.0859 µM) | 0.5 (≈ 0.716 µM) | 0.06 (≈ 0.0859 µM) | 0.125 (≈ 0.179 µM) | 0.125 (≈ 0.179 µM) | 0.06 (≈ 0.0859 µM) | > 64 | > 64 | – | > 64 | > 64 | 0.5 (≈ 0.716 µM) | 2 (≈ 2.86 µM) | MIC (Escherichia coli; Culture Number 9952, 35° C.): 0.015 µg/mL (≈ 0.0215 µM); Minimum Inhibitory Concentration (Staphylococcus aureus; Culture Number 9218): > 64 µg/mL; MIC (Staphylococcus aureus; Culture Number 3665): > 64 µg/mL; MIC (Streptococcus faecalis; Culture Number 9217): > 64 µg/mL
C[C@H]1[C@@H](NS(=O)(=O)NC(=O)N2C[C@H](NC(=O)/C(=N\OC(C)(C)C(=O)O)c3csc(N)n3)C2=O)C(=O)NN1C(=O)c1cc(=O)c(O)c[nH]1 [60(p), 3(S)-3-[2-(2-amino-4-thiazoyl)-Z-(2)-(carboxyisopropyloxyimino)-acetamido]-1-[(3-hydroxy-4-pyridon-6-yl)-1-carbonyl-5(S)-methyl-pyrazolidinone-4(R)-amino]-sulfonylaminocarbonyl-2-azetidinone] | 0.06 (≈ 0.0859 µM) | 8 (≈ 11.5 µM) | 2 (≈ 2.86 µM) | 0.03 (≈ 0.0429 µM) | 0.015 (≈ 0.0215 µM) | 0.015 (≈ 0.0215 µM) | 0.125 (≈ 0.179 µM) | 0.06 (≈ 0.0859 µM) | 0.5 (≈ 0.716 µM) | 0.06 (≈ 0.0859 µM) | 0.125 (≈ 0.179 µM) | 0.06 (≈ 0.0859 µM) | 0.06 (≈ 0.0859 µM) | > 64 | > 64 | – | > 64 | > 64 | 0.25 (≈ 0.358 µM) | 1 (≈ 1.43 µM) | MIC (Escherichia coli; Culture Number 9952, 35° C.): 0.015 µg/mL (≈ 0.0215 µM); Minimum Inhibitory Concentration (Staphylococcus aureus; Culture Number 9218): > 64 µg/mL; MIC (Staphylococcus aureus; Culture Number 3665): > 64 µg/mL; MIC (Streptococcus faecalis; Culture Number 9217): > 64 µg/mL
